Assay: gradient 5% acetonitrile 3 min, to 50% in 2 min, to 85% in 15 min, held 3 min, 100 µL/min
Conditions: column: Zorbax Extend-C18 2.1 x 50 mm; eluents: water / acetonitrile, 0.1% formic acid
How it was run: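 Mixtures of ~100 pure standards were chromatographed on a Zorbax Extend-C18 column (2.1 × 50 mm, 1.8 μm) at 100 μL/min using water and acetonitrile, each with 0.1% formic acid. Detection used a quadrupole time-of-flight mass spectrometer in positive and negative ionization mode, and data collection spanned 3 months. Retention time was obtained from adduct peaks picked computationally and each checked manually.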

RP-LC retention time [s] | SMILES
699 | O=C(CN1C(=O)NC2(CCCCC2)C1=O)NCc1ccc2c(c1)OCO2
864 | Cc1ccc(Cn2c(C(=O)NCc3ccccc3)cc3sccc32)cc1
959 | CN(C)c1ccc(N2C=C(C(=O)N3CCCCC3)S(=O)(=O)c3ccc(F)cc32)cc1
698 | CC(=O)OC1CCN(C(=O)c2ccc(C#N)cc2)CC1
632 | CCOc1ccc2nc(N3CCCC(C(=O)NCCCN4CCOCC4)C3)sc2c1 (stereo not given)
804 | CC(=O)N(Cc1ccc(F)cc1)Cc1ccc2c(c1)CN(C(=O)C(C)C)CCO2
742 | O=C(NCc1cccs1)C1CCN(c2cnn(Cc3ccccc3)c(=O)c2)CC1
602 | Clc1ccccc1-c1nnc(CN2CCN(c3ccccn3)CC2)o1
1030 | O=C(c1cc(F)ccc1F)N1CCCC1c1nc(-c2ccc(F)cc2)no1 (stereo not given)
638 | COc1ccc(OC)c(CNC(=O)c2c(C)oc3c2C2=NCCN2C=N3)c1
808 | O=C(c1ccccc1)N1CCN(C(=O)N(c2ccccc2)c2ccccc2)CC1
760 | O=C(CN1C(=O)CSc2ccc(C(=O)N3CCCC3)cc21)NC1CCCCCCC1
1020 | CCOc1nc2ccccc2nc1N1CCCC(C(=O)NCc2ccco2)C1 (stereo not given)
601 | CCc1nc2cc(N3CCCC(C(=O)NCCN4CCCC4)C3)cnc2nc1CC (stereo not given)
1070 | CCCN1C(=O)COc2ccc(-c3csc(NC(=O)CCc4ccccc4)n3)cc21
768 | COC(=O)c1ccc(C(=O)Nc2nnc(Cc3ccc(C)cc3)o2)cc1
897 | Cc1cc(=O)n(CCc2ccccc2)c(N2CCSCC2)n1
669 | CCc1ccc2oc(=O)cc(CN3CCN(c4ccccn4)CC3)c2c1
663 | CCCN1C(=O)C(CC(=O)NCC2CCCO2)Sc2ncccc21 (stereo not given)
659 | CCCCNC(=O)C(=O)NCc1n[nH]c(=O)c2ccccc12
1080 | Cc1csc(-c2cc(S(=O)(=O)NCCCc3ccccc3)c(C)s2)n1
549 | CCN1CCN(CCCNC(=O)Cc2c(C(=O)O)c(C)cn2C)CC1
836 | O=C(NCc1ccccc1)C1=C2CCCN2c2ccc(F)cc2S1(=O)=O

RP-LC retention time [s] | SMILES
834 | Cc1cc(C)cc(Oc2nccn3c(=O)n(CC(=O)NC4CCCC4)nc23)c1
842 | CC(C)n1c(=O)oc2cc(-c3noc(CNC(=O)Cc4ccccc4)n3)ccc21
918 | O=C(O)Cc1sc(Nc2cccc3ccccc23)nc1-c1ccc(F)cc1
1020 | COC(=O)C1=C(C)NC(C)=C(C(=O)OCCN2CCN(C(c3ccccc3)c3ccccc3)CC2)C1c1cccc([N+](=O)[O-])c1 (stereo not given)
639 | CC1CCCCN1CCCNC(=O)CCCn1c(=O)c2cccn2c2ccc(F)cc21 (stereo not given)
745 | Cc1nc(OCC(=O)Nc2ccccc2Br)c2ccccc2n1
716 | Cc1cc(C(=O)NC2CC2)c2cccc(Cl)c2n1
725 | COc1ccc(C(=O)N2CCC(C(=O)NCCc3csc(-c4cccs4)n3)CC2)cc1OC
877 | Cc1sc(NC(=O)CSc2nnc(COc3ccccc3)o2)nc1-c1ccccc1
683 | O=C(Nc1ccc(OCC(F)(F)C(F)F)cc1)c1ccncc1
1040 | [N-]=[N+]=Nc1ccc2c(c1)Sc1ccccc1N2CCCCN1CCN(Cc2ccc(C(=O)c3ccccc3)cc2)CC1
939 | COc1ccc(-c2csc(Nc3ccc(S(=O)(=O)Nc4cc(C)on4)cc3)n2)cc1
708 | CCOC(=O)C1=C(CN2CC(C)CC(C)C2)NC(=O)NC1c1ccc(OC(C)C)cc1 (stereo not given)
946 | Cc1ccc2ncn(C3CCN(S(=O)(=O)c4ccc(F)c(F)c4)CC3)c(=O)c2c1
818 | COc1ccc(C2(C)OC(c3cc(C)nc4ccccc34)=NN2C(C)=O)c(OC)c1 (stereo not given)
985 | CN(C)c1cccc(C(=O)N2CCCC2c2nc(-c3ccc(F)cc3)no2)c1 (stereo not given)
879 | CCOC(=O)c1[nH]c(C)c(C(=O)C(C)N(C(=O)c2cccc(OC)c2)C2CC2)c1C (stereo not given)
689 | CC(C)(C)NC[C@@H](O)COc1cccc2c1CCCC2=O
878 | COc1cc(C(=O)Nc2cnn(C)c(=O)c2N2CCCCC2)cc(OC)c1OC
596 | Cc1noc(C)c1CN1CCC(NC(=O)c2ccc3cc[nH]c3c2)CC1
861 | COc1ccc(-c2csc(NC(=O)NC3CCCC3)n2)cc1
734 | Cc1ccc(C)c(C(=O)Nc2cccn3cnnc23)c1
578 | Cc1cccc(NC(=O)Nc2cnc3c(c2)CCC3)c1

RP-LC retention time [s] | SMILES
722 | Cc1cccc(NC(=O)C2CCN(S(=O)(=O)c3cc(C(=O)N4CCC(C)CC4)n(C)c3)CC2)n1
833 | COc1ccc2cc3c(=O)n(Cc4ccccc4)nc-3oc2c1
917 | Cc1ccc(CNC(=O)CN2C(=O)CCc3cc(Br)ccc32)cc1
1040 | CCOc1ccc(CNC(=O)c2snc(C(=O)NCc3ccc(F)cc3)c2N)cc1
964 | Cc1ccc(C(=O)NCc2nc(-c3ccc(-c4csc(C)n4)cc3)no2)cc1
941 | Cc1ccc(Cn2nc3c(S(=O)(=O)N4CCc5ccccc5C4)cccn3c2=O)cc1
748 | O=C(NCc1ccccc1Br)c1ccc(-c2cncnc2)nc1
1080 | O=S(=O)(c1ccccc1Cl)N1CCc2nc(-c3ccccc3)ncc2C1
593 | Cn1cc(CC(=O)NCC2CC2)c2cccnc21
1050 | CCc1nnc2ccc(-c3noc(-c4ccc(Cl)cc4)n3)cn12
723 | Cc1ccc(NC(=O)Nc2ccc3nncn3c2)cc1F
676 | Cc1cccn2c(=O)cc(CN(Cc3ccccc3)Cc3ccco3)nc12
767 | CSc1ccc(CNC(=O)CSc2cc(N3CCCCC3)ncn2)cc1
968 | Cc1cc(C)cc(NC(=O)CN2C(=O)C(C)(C)c3ccccc32)c1
1110 | O=S(=O)(c1ccc(F)c(F)c1)N1CCc2nc(-c3ccc(F)cc3)ncc2C1
591 | CCNC(=O)C1CCN(c2nc3ccc(-c4cccnc4)nc3s2)CC1
1020 | O=C(CN1CCN(C(=O)Nc2ccc(Br)cc2)CC1=O)Nc1ccc(F)cc1F
890 | O=C1NC2(CCN(C(=O)Nc3ccc(F)cc3)CC2)N=C1c1ccc(Cl)cc1
932 | CC(CCc1ccccc1)NC(=O)Cn1c(=O)n(C(C)C)c2ccc(S(=O)(=O)N3CCCC3)cc21 (stereo not given)
731 | CCOc1ccc(CN2CCC(NC(=O)Cc3cccnc3)C2)cn1 (stereo not given)
592 | CCCCOCc1cc(CN2CCN(C)CC2)c(O)c2ncccc12
758 | O=C1CC2(CCCC2)CC(=O)N1CCCCNCC1COc2ccccc2O1 (stereo not given)
837 | CCC1Oc2ccc(S(=O)(=O)N3CCC(C(=O)Nc4cc(C)cc(C)c4)CC3)cc2NC1=O (stereo not given)

RP-LC retention time [s] | SMILES
666 | CN1C(=O)[C@H]2CN(Cc3ccc(OC(F)(F)F)cc3)C[C@H]2C1=O
916 | O=C(c1cn(Cc2ccccc2)cc2c(=O)n(-c3ccccc3)nc1-2)N1CCc2ccccc21
683 | O=C(Nc1ccccc1F)N1CCCC1c1nncn1-c1ccccc1 (stereo not given)
1170 | O=S(=O)(NC1CCCC1)c1cccc(-c2nc(-c3ccccc3)no2)c1
1180 | COc1ccc(-c2nnc(-c3ccc(Cl)c(S(=O)(=O)N4CCC(C)CC4)c3)o2)cc1OC
796 | O=C(Nc1ccccc1)C1CC(=O)N(CCc2c[nH]c3ccc(F)cc23)C1 (stereo not given)
1060 | COc1ccc(N2CCN(c3cc(SCC(=O)Nc4cccc(Cl)c4C)ncn3)CC2)cc1
558 | O=C(Nc1nccs1)C1CCN(C(=O)c2ccc[nH]c2=O)CC1
801 | COc1cccc(CNC(=O)CCc2nc3c(C)cccc3c(=O)n2C)c1
902 | COc1ccccc1CC(=O)N1CCCC1c1cc(C(C)C)on1 (stereo not given)
784 | COc1ccc(Cl)cc1C(=O)NC1CCN(c2cc(-c3ccccc3)[nH]n2)C1 (stereo not given)
610 | O=C(NCCc1ccccn1)c1sc2ncccc2c1-n1cccc1
627 | COCc1cc(=O)n(CC(=O)Nc2cc(F)ccc2C)c(N)n1
728 | O=C1NCCCn2cc(S(=O)(=O)Nc3ccc(C(F)(F)F)cc3)cc21
672 | Cc1cc(C)cc(Nc2c(C(=O)N3CCCC(C)C3)cnc3nc(C)ccc23)c1 (stereo not given)
954 | COc1ccc(C(=O)Nc2nnc(SCc3ccccc3Cl)s2)cc1OC
961 | Cc1cccc(-c2noc(C3CCCN3C(=O)Nc3ccc4c(c3)OCO4)n2)c1 (stereo not given)
888 | Cc1ccc(C(=O)Nc2ccc(N3CCN(C4CCCC4)C3=O)nc2)cc1
1060 | Cc1ccc(Cn2nc3ccc(S(=O)(=O)N4CCC(C)CC4)cn3c2=O)cc1
757 | Cc1nc(C)c(C(=O)NCC23CCC=C2N(CC2CC2)C(=O)CC3)s1 (stereo not given)
731 | CC(C)(C)c1ccc(C(=O)NCCCn2ncccc2=O)cc1

From the METLIN SMRT retention time set (Domingo-Almenara et al. 2019)
